Source: patent publication US20170050939A1, “SMALL MOLECULE INHIBITORS OF G PROTEIN COUPLED RECEPTOR 6 KINASE POLYPEPTIDES” (Mayo Foundation for Medical Education and Research, priority 2014, published 2017)
Like-named read-outs stand apart in the source and are kept apart here.

Biological target: T1, GRK6, recombinant full-length GST-tagged human protein (Homo sapiens, UniProt P43250)
T1 construct: GRK6, recombinant full-length GST-tagged human protein; GST
Experiment: GRK6 IC50 determination (8-point concentration-response)
Type: biochemical
Description: Two hundred forty compounds were further characterized by determining IC50 values in a GRK6 assay. This screen has been previously described in WO 2013/063458, which is incorporated by reference in its entirety herein.

[1] = 20 nM GRK6, 12 μM ATP (Km), 1 μM Peptide 216, 7 h incubation

T1 sequence (P43250 whole entry): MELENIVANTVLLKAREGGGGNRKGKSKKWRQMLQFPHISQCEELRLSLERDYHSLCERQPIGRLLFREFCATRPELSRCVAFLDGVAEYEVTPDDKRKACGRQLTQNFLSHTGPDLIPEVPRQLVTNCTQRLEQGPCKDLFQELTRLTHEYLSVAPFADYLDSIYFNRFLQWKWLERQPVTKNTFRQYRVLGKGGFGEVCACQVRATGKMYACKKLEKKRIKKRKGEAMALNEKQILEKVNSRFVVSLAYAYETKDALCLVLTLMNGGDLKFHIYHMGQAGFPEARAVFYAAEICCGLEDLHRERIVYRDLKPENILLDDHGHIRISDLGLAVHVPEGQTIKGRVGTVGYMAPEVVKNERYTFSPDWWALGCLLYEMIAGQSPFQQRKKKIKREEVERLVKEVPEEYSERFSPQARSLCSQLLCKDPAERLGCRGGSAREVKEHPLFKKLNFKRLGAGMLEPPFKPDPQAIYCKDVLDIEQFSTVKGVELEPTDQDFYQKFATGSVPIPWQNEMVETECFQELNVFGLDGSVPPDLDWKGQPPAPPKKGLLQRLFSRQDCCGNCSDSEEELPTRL

| Compound | IC50 [µM] | IC50 [1] [µM] |
| --- | --- | --- |
| Cn1ncc2cc(-c3cc(-c4nnc(SCC(=O)O)[nH]4)cc([N+](=O)[O-])c3)ccc21 [Compound 21] | 0.184 |  |
| CN1CCOc2cc(-c3nnc(SCC(=O)O)[nH]3)ccc21 [Compound 166] | 20.2 |  |
| Cn1ccc(-c2cc(-c3nnc(SCC(=O)O)[nH]3)cc([N+](=O)[O-])c2)n1 [Compound 75] | 0.431 |  |
| Cc1nn(C)c(C)c1-c1cc(-c2nnc(SCC(=O)O)[nH]2)cc([N+](=O)[O-])c1 [Compound 93] | 1.57 |  |
| O=C(O)CSc1nnc(-c2cccc(C(=O)Nc3ccccc3)c2)[nH]1 [Compound 149] | 11.8 |  |
| N#Cc1cc(-c2ccc3ccccc3c2)cc(-c2nnc(SCC(=O)O)[nH]2)c1 [Compound 17] | 0.168 |  |
| O=C(O)CSc1nnc(-c2cc(C(=O)NCc3ccccn3)cc([N+](=O)[O-])c2)[nH]1 [Compound 111] | 4.41 |  |
| COc1ccc2cc(-c3cccc(-c4nnc(SCC(=O)O)[nH]4)c3)ccc2c1 [Compound 51] |  | 0.51 |
| CS(=O)(=O)c1cccc(-c2cc(-c3nnc(SCC(=O)O)[nH]3)cc([N+](=O)[O-])c2)c1 [Compound 60] | 0.779 |  |
| O=C(O)CSc1nnc(-c2cccc(Cn3cccn3)c2)[nH]1 [Compound 159] |  | 16.2 |
| CNC(=O)c1ccc(-c2cc(-c3nnc(SCC(=O)O)[nH]3)cc([N+](=O)[O-])c2)cc1 [Compound 45] | 0.44 |  |
| COc1ccc(O)c(-c2nnc(SCC(=O)O)[nH]2)c1 [Compound 113] |  | 4.55 |
| COc1cc(-c2nnc(SCC(=O)O)[nH]2)cc(OC)c1OC [Compound 137] |  | 8.23 |
| COc1cc(-c2nnc(SCC(=O)O)[nH]2)cc(O)c1OC [Compound 168] |  | 20.7 |
| CN(C)c1ccc(-c2nnc(SCC(=O)O)[nH]2)c([N+](=O)[O-])c1 [Compound 183] |  | 40 |
| Cc1noc(C)c1-c1cc(-c2ccc3ccccc3c2)cc(-c2nnc(SCC(=O)O)[nH]2)c1 [Compound 65] | 1.02 |  |
| Cc1nn(C)cc1-c1cc(-c2nnc(SCC(=O)O)[nH]2)cc([N+](=O)[O-])c1 [Compound 79] | 0.75 |  |
| CN(C)Cc1ccc(-c2nnc(SCC(=O)O)[nH]2)cc1 [Compound 184] |  | 40 |
| Cn1ccc2cc(-c3cc(-c4n[nH]c(SCC(=O)O)n4)cc([N+](=O)[O-])c3)cc(Cl)c21 [Compound 229] | 0.114 |  |
| O=C(O)CSc1nnc(-c2cc(-c3ccncc3)cc(-c3ccc4ccccc4c3)c2)[nH]1 [Compound 69] | 1.86 |  |
| O=C(O)CSc1nnc(-c2cc(C(=O)NCc3ccccc3)cc([N+](=O)[O-])c2)[nH]1 [Compound 94] | 1.57 |  |
| O=C(O)CSc1nnc(-c2cc(-c3cccc(-c4cc[nH]n4)c3)cc([N+](=O)[O-])c2)[nH]1 [Compound 7] | 0.0923 |  |

| Compound | IC50 [µM] | IC50 [1] [µM] |
| --- | --- | --- |
| O=C(O)CSc1nnc(-c2cccc3c2OCO3)[nH]1 [Compound 164] | 18.5 |  |
| O=C(O)CSc1nnc(-c2cc(-c3ccc4[nH]cnc4c3)cc([N+](=O)[O-])c2)[nH]1 [Compound 26] | 0.249 |  |
| Cn1nccc1-c1cc(-c2nnc(SCC(=O)O)[nH]2)cc([N+](=O)[O-])c1 [Compound 88] | 1.05 |  |
| O=C(O)CSc1nnc(-c2cc(-c3cn[nH]c3)cc([N+](=O)[O-])c2)[nH]1 [Compound 74] | 0.379 |  |
| CCN(CC)c1ccc(-c2nnc(SCC(=O)O)[nH]2)c(O)c1 [Compound 173] |  | 25.8 |
| CC(=O)Nc1ccc(-c2cc(-c3nnc(SCC(=O)O)[nH]3)cc([N+](=O)[O-])c2)cc1 [Compound 27] | 0.262 |  |
| COC(=O)c1ccc(-c2nnc(SCC(=O)O)[nH]2)cc1 [Compound 142] |  | 9.56 |
| Cn1cc(Cl)c2cc(-c3cc(-c4n[nH]c(SCC(=O)O)n4)cc([N+](=O)[O-])c3)ccc21 [Compound 227] | 0.06 |  |
| N#Cc1cccc(-c2nnc(SCC(=O)O)[nH]2)c1 [Compound 96] |  | 2.31 |
| O=C(O)CSc1nnc(-c2cc(-c3cncc(F)c3)cc(-c3ccc4ccccc4c3)c2)[nH]1 [Compound 55] | 0.631 |  |
| O=C(O)CSc1nnc(-c2ccc(OC3CCNCC3)cc2)[nH]1 [Compound 182] |  | 40 |
| COc1ccc(-c2cc(-c3ccc4ccccc4c3)cc(-c3nnc(SCC(=O)O)[nH]3)c2)cn1 [Compound 66] | 1.08 |  |
| O=C(O)CSc1nnc(-c2cc(-c3ccc(C(F)(F)F)nc3)cc(-c3ccc4ccccc4c3)c2)[nH]1 [Compound 70] | 2.73 |  |
| O=C(O)CSc1nnc(-c2ccc(OCc3ccccc3)c([N+](=O)[O-])c2)[nH]1 [Compound 86] | 0.935 |  |
| Cc1cncc(-c2cc(-c3ccc4ccccc4c3)cc(-c3nnc(SCC(=O)O)[nH]3)c2)c1 [Compound 34] | 0.349 |  |
| O=C(O)CSc1nnc(-c2ccc3nsnc3c2)[nH]1 [Compound 117] | 4.85 |  |
| O=C(O)CSc1nnc(-c2cccc(-n3cncn3)c2)[nH]1 [Compound 112] |  | 4.47 |
| COc1cc(-c2nnc(SCC(=O)O)[nH]2)ccc1F [Compound 114] | 4.62 |  |
| O=C(O)CSc1nnc(-c2c(O)ccc3ccccc23)[nH]1 [Compound 224] | > 80 |  |
| O=C(O)CSc1nnc(-c2cc(-c3ccc4ccccc4c3)cc([N+](=O)[O-])c2)[nH]1 [Compound 6] | 0.0784 |  |
| Cn1ccc2c(-c3cc(-c4nnc(SCC(=O)O)[nH]4)cc([N+](=O)[O-])c3)cccc21 [Compound 16] | 0.14 |  |
